Data from ChEMBL document CHEMBL1130748, “Design and synthesis of monocyclic beta-lactams as mechanism-based inhibitors of human cytomegalovirus protease” (Bioorg Med Chem Lett, 1998).

Columns and labels:
[1] = tested on: Human betaherpesvirus 5; test: Compound was evaluated for antiviral activity measured as percentage inhibition determined at a concentration of 100 (uM) against mutant alpha-Ala HCMV protease; type: functional
[2] = Compound was tested for its stability by HPLC method, value expressed as half life; type: physicochemical
[3] = molecular target: Capsid scaffolding protein (Human cytomegalovirus (strain AD169) (HHV-5) (Human herpesvirus 5), UniProt P16753); test: Concentration required to inhibit the mutant alpha-Ala HCMV protease by 50% was determined
Sequence of Capsid scaffolding protein (P16753 1-256 limits assumed): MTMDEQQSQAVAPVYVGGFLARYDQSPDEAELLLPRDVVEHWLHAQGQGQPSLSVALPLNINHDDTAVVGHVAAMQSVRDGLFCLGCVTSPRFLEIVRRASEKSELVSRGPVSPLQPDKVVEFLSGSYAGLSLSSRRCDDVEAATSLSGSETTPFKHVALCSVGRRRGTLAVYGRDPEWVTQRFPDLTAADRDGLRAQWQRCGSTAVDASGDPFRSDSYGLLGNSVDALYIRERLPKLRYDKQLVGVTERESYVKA

[4] = tested on: Human betaherpesvirus 5; test: Compound was evaluated for antiviral activity measured as percentage inhibition determined at a concentration of 500 (uM) against mutant alpha-Ala HCMV protease; type: functional
[5] = molecular target: Acetylcholinesterase (Homo sapiens, UniProt P22303); test: Concentration required to inhibit the mammalian Acetylcholinesterase by 50% was determined
Sequence of Acetylcholinesterase (P22303 whole entry): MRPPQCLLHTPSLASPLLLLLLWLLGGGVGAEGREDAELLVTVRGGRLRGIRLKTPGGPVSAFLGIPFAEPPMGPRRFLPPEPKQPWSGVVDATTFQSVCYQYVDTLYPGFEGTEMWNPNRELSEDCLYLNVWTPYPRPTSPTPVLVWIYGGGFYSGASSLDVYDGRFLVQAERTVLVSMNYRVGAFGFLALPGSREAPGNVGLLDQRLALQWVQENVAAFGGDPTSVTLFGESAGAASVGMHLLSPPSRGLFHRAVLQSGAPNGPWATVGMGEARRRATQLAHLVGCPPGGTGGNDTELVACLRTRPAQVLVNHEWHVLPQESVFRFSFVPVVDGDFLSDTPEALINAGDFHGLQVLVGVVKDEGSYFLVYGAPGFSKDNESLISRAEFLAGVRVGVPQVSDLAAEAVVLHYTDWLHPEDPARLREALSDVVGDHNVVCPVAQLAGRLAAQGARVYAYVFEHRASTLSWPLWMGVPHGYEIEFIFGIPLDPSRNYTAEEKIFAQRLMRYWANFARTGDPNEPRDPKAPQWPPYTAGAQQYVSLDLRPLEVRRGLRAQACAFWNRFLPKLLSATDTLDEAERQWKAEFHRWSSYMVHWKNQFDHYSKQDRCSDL

[6] = organism: Homo sapiens; test: Concentration required to inhibit the mammalian elastase by 50% was determined; type: functional, organism-based
[7] = tested on: Human betaherpesvirus 5; test: Binding affinity towards mutant alpha-Ala HCMV protease was determined; type: functional
[8] = molecular target: Chymotrypsinogen A (Bos taurus, UniProt P00766); test: Concentration required to inhibit the mammalian Chymotrypsinogen by 50% was determined
[9] = tested on: Human betaherpesvirus 5; test: 50 % concentration required to inhibit the mutant alpha-Ala HCMV protease was determined; type: functional
[10] = tested on: Human betaherpesvirus 5; test: The compound was evaluated for antiviral activity measured as percentage inhibition determined at a concentration of 100 (uM) against mutant alpha-Ala HCMV protease; type: functional

Row | Structure (SMILES) | Inhibition [1] [%] | IC50 [3] [µM] | other results
1 | O=C(O)c1ccc(O[C@@H]2CC(=O)N2C(=O)NCc2ccccc2)cc1 | 48 | > 100 | half-life [2]: 1.4 h
2 | CC(=O)OC1CC(=O)N1 (stereo not given) | – | – | Inhibition [4]: 0%
3 | CC(=O)O[C@@H]1CC(=O)N1C(=O)NC(C)C | 30 | > 100 | –
4 | CC(=O)O[C@@H]1[C@@H](C)C(=O)N1C(=O)Nc1ccccc1 | – | 86 | –
5 | CC(=O)O[C@@H]1[C@H](C)C(=O)N1C(=O)NCc1ccccc1 | – | 27 | –
6 | C[C@@H]1C(=O)N(C(=O)NCc2ccccc2)[C@@H]1Oc1ccc(C(=O)C(C)(C)C)cc1 | 35 | > 100 | –
7 | C[C@H]1C(=O)N(C(=O)NCc2ccccc2)[C@@H]1Oc1ccc(C(=O)O)cc1 | – | 20 | IC50 [5]: > 100 µM; IC50 [6]: 3.9 µM; Ki [7]: 5.6 µM; IC50 [8]: 1.6 µM; half-life [2]: 3.1 h
8 | CC(=O)O[C@@H]1[C@H](C)C(=O)N1C(=O)Nc1ccccc1 | – | > 100 | –
9 | CC(=O)O[C@@H]1CC(=O)N1C(=O)NCc1ccccc1 | – | 42 | Ki [7]: 20 µM; half-life [2]: 0.53 h
10 | CCCCNC(=O)N1C(=O)C[C@H]1OC(C)=O | – | 68 | Ki [7]: 26 µM
11 | C[C@@H]1C(=O)N(C(=O)NCc2ccccc2)[C@@H]1Oc1ccc(C(=O)O)cc1 | 12 | > 100 | –
12 | CCC1(CC)C(=O)N(C(=O)NC)[C@@H]1OC(C)=O | 5 | > 100 | –
13 | CNC(=O)N1C(=O)C[C@H]1OC(C)=O | 29 | – | IC50 [9]: > 100 µM; Inhibition [4]: 68.5%
14 | O=C(O)c1ccc(O[C@@H]2CC(=O)N2C(=O)Nc2ccccc2)cc1 | 43 | > 100 | –
15 | CC[C@@H]1C(=O)N(C(=O)NCc2ccccc2)[C@@H]1Oc1ccc(C(=O)O)cc1 | – | > 100 | Inhibition [10]: 25%
16 | CC[C@H]1C(=O)N(C(=O)NCc2ccccc2)[C@@H]1Oc1ccc(C(=O)O)cc1 | – | 50 | Ki [7]: 8.3 µM; half-life [2]: 7.6 h
17 | CC(=O)O[C@H]1N(C(=O)NCc2ccccc2)C(=O)C1(C)C | 6 | > 100 | –
18 | CC(C)NC(=O)N1C(=O)C[C@H]1Oc1ccc(C(=O)O)cc1 | 8 | 100 | –
19 | CNC(=O)N1CCC1=O | – | – | Inhibition [4]: 7.7%
20 | C[C@H]1C(=O)N(C(=O)NCc2ccccc2)[C@@H]1Oc1ccc(C(=O)C(C)(C)C)cc1 | – | 17 | IC50 [5]: > 100 µM; IC50 [6]: > 100 µM; Ki [7]: 5.7 µM; IC50 [8]: > 100 µM; half-life [2]: 22.8 h
21 | CCNC(=O)N1C(=O)C[C@H]1OC(C)=O | 36 | > 100 | –
22 | CC(=O)O[C@@H]1[C@@H](C)C(=O)N1C(=O)NCc1ccccc1 | – | 6.5 | –
